Data taken from patent US4410516A, “1-N(αHydroxy-ω-aminoalkanoyl) derivatives of 5,3',4'-trideoxy- or 5,3', 4'-trideoxy-6'-N- methyl- or 5, 3', 4',6"-tetradeoxykannamyci B and production thereof” (Zaidan Hojin Biseibutsu Kagaku Kenkyu Kai, priority 1981, dated 1983).
Values after ≈ are worked out from the molar mass of the structure shown.

Experiments:
[1] = system: Escherichia coli JR255; assay: Minimum inhibitory concentration, serial dilution on nutrient agar; format: cell-based; conditions: JR255, 18 h
[2] = system: Bacillus subtilis PCI 219; assay: as above; format: cell-based; conditions: PCI219, 37° C., 18 hours incubation
[3] = system: Escherichia coli K-12 LA 290 R64; assay: as above; format: cell-based; conditions: K12LA290R64, 18 h
[4] = system: Escherichia coli W677; assay: as above; format: cell-based; conditions: W677, 18 h
[5] = system: Pseudomonas aeruginosa K-Ps102; assay: as above; format: cell-based; conditions: KPS102, 18 h
[6] = system: Bacillus cereus ATCC 10702; assay: as above; format: cell-based; conditions: ATCC10702, 18 h
[7] = system: Salmonella enteritidis 1891; assay: as above; format: cell-based; conditions: Salmonella enterica, 18 h
[8] = system: Klebsiella pneumoniae 22 #3038; assay: as above; format: cell-based; conditions: 18 h
[9] = Acute toxicity by intravenous injection in mice; conditions: mouse, in vivo
[10] = system: Mycobacterium smegmatis ATCC 607; assay: Minimum inhibitory concentration, serial dilution on nutrient agar; format: cell-based; conditions: Mycolicibacterium smegmatis, ATCC607; nutrient agar, 37° C., 18 hours incubation; read-out: MIC
[11] = system: Shigella sonnei JS11746; assay: as above; format: cell-based; conditions: 37° C., 18 hours incubation
Text: (§1) The minimum inhibitory concentration (mcg/ml) of 1-N-[(S)-4-amino-2-hydroxybutyryl]-5,3',4'-trideoxykanamycin B (abbreviated as AHB-trideoxyKMB), 1-N-[(RS)-3-amino-2-hydroxypropionyl]-5,3',4'-trideoxykanamycin B (abbreviated as AHP-trideoxy-KMB) and 1-N-[(S)-4-amino-2-hydroxybutyryl]-5,3',4',6"-tetradeoxykanamycin B (abbreviated as AHB-tetradeoxyKMB) of the formula (II) according to this invention as well as of the new compound 5,3',4',6"-tetradeoxykanamycin B (abbreviated as tetradeoxyKMB) of the formula (III) according to this invention against various microorganisms were determined according to serial dilution method on a nutrient agar medium at 37° C., the estimation being made after 18 hours incubation. For comparison purpose, the minimum inhibitory concentrations of habekacin were also determined in the same manner as stated above.
(§2) The minimum inhibitory concentrations (mcg/ml) of 1-N-[(S)-4-amino-2-hydroxybutyryl]-5,3',4'-trideoxy-6'-N-methylkanamycin B (abbreviated as AHB-trideoxyMKMB), 1-N-[(RS)-3-amino-2-hydroxypropionyl]-5,3',4'-trideoxy-6'-N-methylkanamycin B (abbreviated as AHP-trideoxyMKMB) and 1-N-[(S)-5-amino-2-hydroxyvaleryl]-5,3',4'-trideoxy-6'-N-methylkanamycin B (abbreviated as AHV-trideoxyMKMB) of the formula (IV) according to this invention as well as of the new compound 5,3',4'-trideoxy-6'-N-methylkanamycin B (abbreviated as trideoxyMKMB) of the formula (V) according to this invention against various microorganisms were determined according to serial dilution method on a nutrient agar medium at 37° C., the estimation being made after 18 hours incubation. For comparison purpose, the minimum inhibitory concentrations of 1-N-[(S)-4-amino-2-hydroxybutyryl]-3',4'-dideoxykanamycin B (ie. habekacin) were also determined in the same manner as stated above.

[12] = system: Escherichia coli K-12 J5R 11-2; assay: as above; format: cell-based; conditions: K12J5R112, 37° C., 18 hours incubation
Text: as §1, §2

[13] = system: Escherichia coli K-12 ML 1630; assay: as above; format: cell-based; conditions: K12ML1630, 37° C., 18 hours incubation
Text: as §1, §2

[14] = system: Escherichia coli K-12 C 600R/35; assay: as above; format: cell-based; conditions: K12C600R/35, 37° C., 18 hours incubation
Text: as §1, §2

[15] = system: Shigella flexneri 4b JS11811; assay: as above; format: cell-based; conditions: 4BJS11811, 37° C., 18 hours incubation
Text: as §1, §2

[16] = system: Serratia 4; assay: as above; format: cell-based; conditions: 37° C., 18 hours incubation
[17] = system: Salmonella typhi T-63; assay: as above; format: cell-based; conditions: Salmonella enterica, 18 h
[18] = system: Pseudomonas aeruginosa H9; assay: as above; format: cell-based; conditions: H9, 18 h
[19] = system: Bacillus anthracis; assay: microbe, parasite or virus in culture; format: cell-based; conditions: 18 h
[20] = system: Staphylococcus epidermidis 109; assay: Minimum inhibitory concentration, serial dilution on nutrient agar; format: cell-based; conditions: Staphylococcus epidermidis, 109; nutrient agar, 37° C., 18 hours incubation; read-out: MIC
[21] = system: Micrococcus flavus FDA 16; assay: as above; format: cell-based; conditions: FDA16, 18 h
[22] = system: Providencia Pv 16; assay: as above; format: cell-based; conditions: PV16, 37° C., 18 hours incubation
[23] = system: Sarcina lutea PCI 1001; assay: as above; format: cell-based; conditions: Micrococcus luteus, PCI1001, 18 h
[24] = system: Escherichia coli K-12 ML 1629; assay: as above; format: cell-based; conditions: K12ML1629, 18 h
[25] = system: Klebsiella pneumoniae PCI 602; assay: as above; format: cell-based; conditions: PCI602, 18 h
[26] = system: Pseudomonas aeruginosa H11; assay: as above; format: cell-based; conditions: H11, 18 h
[27] = system: Pseudomonas aeruginosa No. 12; assay: as above; format: cell-based; conditions: NO.12, 18 h
[28] = system: Shigella dysenteriae JS 11910; assay: as above; format: cell-based; conditions: JS11910, 18 h
[29] = system: Proteus rettgeri GN466; assay: as above; format: cell-based; conditions: Providencia rettgeri, GN466, 18 h
[30] = system: Staphylococcus aureus Smith; assay: as above; format: cell-based; conditions: 37° C., 18 hours incubation

CNC[C@@H]1CC[C@@H](N)[C@@H](O[C@H]2C[C@@H](O[C@H]3O[C@H](CO)[C@@H](O)[C@H](N)[C@H]3O)[C@H](NC(=O)[C@@H](O)CCCN)C[C@@H]2N)O1 [AHV-trideoxyMKMB, 1-N-[(S)-5-amino-2-hydroxyvaleryl]-5,3',4'-trideoxy-6'-N-methylkanamycin B]
MIC [1]: 1.56 µg/mL (≈ 2.76 µM)
MIC [2]: < 0.2 µg/mL
MIC [3]: 1.56 µg/mL (≈ 2.76 µM)
MIC [4]: 1.56 µg/mL (≈ 2.76 µM)
MIC [5]: 1.56 µg/mL (≈ 2.76 µM)
MIC [6]: 1.56 µg/mL (≈ 2.76 µM)
MIC [7]: 3.13 µg/mL (≈ 5.54 µM)
MIC [8]: 3.13 µg/mL (≈ 5.54 µM)
LD50 [9]: 50 to 100 mg/kg
MIC [10]: 0.39 µg/mL (≈ 0.691 µM)
MIC [11]: 6.25 µg/mL (≈ 11.1 µM)
MIC [12]: 3.13 µg/mL (≈ 5.54 µM)
MIC [13]: 3.13 µg/mL (≈ 5.54 µM)
MIC [14]: 1.56 µg/mL (≈ 2.76 µM)
MIC [15]: 1.56 µg/mL (≈ 2.76 µM)
MIC [16]: 12.5 µg/mL (≈ 22.1 µM)
MIC [17]: 3.13 µg/mL (≈ 5.54 µM)
MIC [18]: 3.13 µg/mL (≈ 5.54 µM)
MIC [19]: < 0.2 µg/mL
MIC [20]: < 0.2 µg/mL
MIC [21]: 3.13 µg/mL (≈ 5.54 µM)
MIC [22]: 25 µg/mL (≈ 44.3 µM)
MIC [23]: 1.56 µg/mL (≈ 2.76 µM)
MIC [24]: 3.13 µg/mL (≈ 5.54 µM)
MIC [25]: 1.56 µg/mL (≈ 2.76 µM)
MIC [26]: 6.25 µg/mL (≈ 11.1 µM)
MIC [27]: 3.13 µg/mL (≈ 5.54 µM)
MIC [28]: 6.25 µg/mL (≈ 11.1 µM)
MIC [29]: 6.25 µg/mL (≈ 11.1 µM)
MIC [30]: < 0.2 µg/mL
